Laboratory results published in patent US12385008B2, “Method for producing retinal tissue” (SUMITOMO PHARMA CO., LTD., priority 2015, dated 2025).

Columns and labels:
[1] = test system: human iPS cells (1231A3 strain); assay: Pax6 and Chx10 immunostaining of cell aggregates from human iPS cells (Example 2); format: cell-based; details: first step MEK inhibitor ± PKC inhibitor; second step with 30 nM SAG; BMP4 1.5 nM from day 3; 22 days after start of suspension culture; FIG. 3
Description: (§1) iPS cells derived from human peripheral blood derived-mononuclear cells established from ePMBC (registered trade mark) of Cellular Technology Limited (1231A3 strain, Kyoto University) were used. Undifferentiated maintenance culture of these iPS cells under feeder cell-free conditions was performed according to the method described in “Nakagawa, M. et. al., Sci. Rep. 2014 Jan. 8; 4: 3594”. As the medium, “StemFit (registered trade mark)” AK03 medium (Ajinomoto Co., Inc.) was used and iMatrix-511 (Nippi) was used as a culture substrate.
Production of retinal tissue including a step of culturing in a medium containing an MEK inhibitor, a PKC inhibitor or a Sonic hedgehog signal transduction pathway activating substance was performed as follows. Human iPS cells under culture for maintaining an undifferentiated state were treated with 0.5×TrypLE select (mixture of equal amounts of TrypLE select (Life Technologies) and 0.5 mM EDTA/PBS(−)), scraped using a cell scraper, dispersed to single cells by pipetting, seeded in a 6-well culture plate coated with iMatrix-511 (0.5 μg/cm^2) at 1.2×10^4 cells per 1 well, and cultured in a StemFit medium containing Y-27632 (Wako Pure Chemical Industries, Ltd.) (final concentration 10 μM) as a ROCK inhibitor under 37° C., 5% CO2 conditions. […]

[2] = test system: human iPS cells (1231A3 strain); assay: Microscopic observation of collapse of cell aggregates from human iPS cells (Example 2); format: cell-based; details: 10 days after start of suspension culture, FIG. 2
Description: as §1
Production of retinal tissue including a step of culturing in a medium containing an MEK inhibitor, a PKC inhibitor or a Sonic hedgehog signal transduction pathway activating substance was performed as follows. Human iPS cells under culture for maintaining an undifferentiated state were treated with 0.5×TrypLE select (mixture of equal amounts of TrypLE select (Life Technologies) and 0.5 mM EDTA/PBS(−)), scraped using a cell scraper, dispersed to single cells by pipetting, seeded in a 6-well culture plate coated with iMatrix-511 (0.5 μg/cm^2) at 1.2×10^4 cells per 1 well, and cultured in a StemFit medium containing Y-27632 (Wako Pure Chemical Industries, Ltd.) (final concentration 10 μM) as a ROCK inhibitor under 37° C., 5% CO2 conditions. At 2 days after the seeding, PD0325901 (SIGMA) (final concentration 1 μM) as an MEK inhibitor and Go6983 (SIGMA) (final concentration 2 μM) as a PKC inhibitor were added and the mixture was cultured for 5 days, or at 6 days after seeding, PD0325901 (final concentration 1 μM) was added and the mixture was cultured for […] (completion of step 1). The cells cultured in the medium containing the above-mentioned inhibitors were treated with 0.5×TrypLE select, scraped using a cell scraper, dispersed to single cells by pipetting, seeded in a 96-well culture plate (PrimeSurface 96 V-BOTTOM plate, SUMITOMO BAKELITE CO., LTD.) at 1.0×10^4 cells per 1 well, and cultured in 100 μl of a gfCDM+KSR medium [45% IMDM (Life Technologies), 45% F12 (Life Technologies), 10% KSR (Life Technologies), 1% Chemically defined lipid concentrate (Life Technologies), 450 μM 1-Thioglycerol (SIGMA)] supplemented with Y-27632 (final concentration 20 μM) (second step SAG(−)) or seeded in a gfCDM+KSR medium supplemented with SAG (Enzo) (final concentration 30 nM) (second step SAG(+)) and cultured in suspension under 37° C., 5% CO2 conditions. Cell aggregates were formed by 2 days after the start of the suspension culture (completion of step 2). […]

SMILES | Pax6, Chx10 (retinal progenitor cell markers) co-positive cells in cell aggregates [1] | collapse of aggregates ([2]; 1-day treatment in first step (1 μM), second step SAG(+) (30 nM SAG)) | collapse of aggregates ([2]; 1-day treatment in first step (1 μM), second step SAG(−)) | collapse of aggregates ([2]; 5-day treatment in first step (PD0325901 1 μM, Go6983 2 μM), irrespective of presence or absence of SAG in second step) | collapse of aggregates ([2]; non-treatment in first step, second step SAG(+) (30 nM SAG))
O=C(NOC[C@H](O)CO)c1ccc(F)c(F)c1Nc1ccc(I)cc1F [PD0325901] | Pax6, Chx10 co-positive cells were confirmed | collapse of aggregates was hardly observed | collapse of aggregates was observed | Collapse of aggregates was not observed | 
CNC1CCC(N(Cc2cccc(-c3ccncc3)c2)C(=O)c2sc3ccccc3c2Cl)CC1 (centres unmarked) [SAG, N-methyl-N′-(3-pyridinylbenzyl)-N′-(3-chlorobenzo[b]thiophene-2-carbonyl)-1,4-diaminocyclohexane] |  |  |  |  | collapse of aggregates was hardly observed
